Results on seven molecules are retold here after PMC3750009, “Non-peptidic Cruzain Inhibitors with Trypanocidal Activity Discovered by Virtual Screening and In Vitro Assay” (PLoS Neglected Tropical Diseases, 2013).

What is called Ki is the dissociation constant of the complex between target and ligand, obtained from inhibition or displacement.

Series [1] in a line: mammalian cell cytotoxicity, propidium iodide flow cytometry. As to conditions: C57BL/6, mouse, primary spleen cells, mouse spleen cells, 24 h; read-out: Cytotoxic IC50. The format is cell-based, mice. Here is the method: (§1) Mammalian cell cytotoxicity was evaluated using the protocol previously reported. Spleen cells from C57BL/6 mice were isolated by mechanical dissociation, followed by incubation for 5 min with red blood cell lysis buffer (one part of 0.17 M Tris–HCl [pH 7.5] and nine parts of 0.16 M ammonium chloride). The cells were washed and suspended in RPMI 1640 medium (Gibco-BRL Life Technologies, Grand Island, NY) supplemented with 10% fetal bovine serum (Life Technologies Inc., Bethesda, MD) and antibiotics (Sigma). The cell suspension was cultured in flat-bottom 96-well plates at 5×10^5 cells per well with different concentrations of the tested compounds and incubated at 37°C in a humidified atmosphere of 5% CO2 for 24 h. Tween 20 at 0.5% was used as cell death positive control. To analyze cytotoxicity, cells were harvested, incubated with 10 µg mL^−1 propidium iodide (Sigma) and after 15 min data were acquired using a FACSCantoII (Becton-Dickinson Immunocytometry System Inc., San Jose, CA, USA). Data analysis was performed using FlowJo software (Ashland, OR, USA). The range of concentrations used for assaying cytotoxicity was 250, 125, 62.5, 31.25, 15.6, 7.8, 3.9, and 1.95 (µM).

Series [2] deals with Spleen cells from C57BL/6 mice. Described as above. Format: cell-based. As to conditions: for cytotoxicity ratio (IC50(cyto)/IC50)(T. cruzi): spleen cell IC50 over T. cruzi IC50; for IC50: mouse spleen cells, 24 h, read-out: Cytotoxic IC50. As for the experimental part:
as §1

The subject of series [3] is Chagas disease. Set-up: method as in PMID 19900395. As to conditions: acute phase ref 5; cited from earlier work.
For series [4], the system named is T. cruzi Tulahuen lacZ strain. The series can be described thus: in vitro trypanocidal activity, infected LLC-MK2 cells, CPRG readout. The format is cell-based, Trypanosoma cruzi. Particulars: for IC50: Trypanosoma cruzi. Here is the method:
In vitro trypanocidal activity of the compounds was evaluated against amastigote forms of Tulahuen strain that was genetically modified to express β-galactosidase gene from E. coli (lacZ). A monkey kidney cell strain (LLC-MK2 - ATCC) was resuspended in RPMI medium without phenol red (Gibco-BRL Life Technologies, Grand Island, NY) containing 10% fetal bovine serum (Life Technologies Inc., Bethesda, MD) and antibiotics (Sigma Chemical Co., St. Louis) at 2×10^3 cells/well and were cultured in 96-well plates for 24 h. The cells were infected with 1×10^4 trypomastigote forms of T. cruzi Tulahuen strain, and after 24 h compounds were added with different concentrations (250, 125, 62.5, 31.25, 15.6, 7.8, 3.9 and 1.95 µM). After 4 days of culture, 50 µL of PBS containing 0.5% of Triton X-100 and 100 µM Chlorophenol Red-β-D-galactoside (CPRG - Sigma) were added. Plates were incubated at 37°C for 4 h and absorbance was read at 570 nm. Benznidazole (N-benzyl-2-nitro-1-imidazolacetamide), in the same concentrations as above was used as a reference trypanocidal drug (positive control), [41].

Series [5] deals with Chagas disease. Set-up: method as in PMID 19620707. Particulars: mice and dogs ref 13; cited from earlier work.
Details of series [6]: method as in PMID 19620707. Particulars: pre-clinical trials ref 13; cited from earlier work.
Series [7] has as its target T1, cathepsin L (Homo sapiens, UniProt P07711).
T1 construct: Cathepsin L enzyme and all reagents used for buffer preparation were purchased from Sigma-Aldrich; purchased Sigma-Aldrich (St. Louis, MO, USA)
The series can be described thus: cathepsin L enzyme assay, IC50 determination (Z-FR-MCA fluorescence). Format: biochemical. Particulars: pH 5.5, 0.01% Triton X-100, 2 nM enzyme, 2 µM Z-FR-MCA. Here is the method:
(§2) Recombinant cruzain enzyme was expressed and purified as previously described. The activity of the cruzain enzyme was measured and quantified through active-site titration with the irreversible inhibitor E-64, as described previously. Cathepsin L enzyme and all reagents used for buffer preparation were purchased from Sigma-Aldrich (St. Louis, MO, USA). The compounds screened against the enzymes were purchased from Enamine (Kiev, Ukraine), Chemdiv (San Diego, CA, USA), Asinex (Moscow, Russia) and IBScreen (Moscow, Russia) and had more than 95%purity, according to these suppliers. All experiments were carried out with freshly made solutions.
(§3) The activity of cruzain was measured in 100 mM phosphate buffer, 100 mM NaCl, 10 mM EDTA, DMSO (5.0% v/v), Triton X-100 (0.01% v/v) and 5.0 mM DTT at pH 6.3. The activity of cathepsin L was measured in 100 mM sodium acetate buffer, 100 mM NaCl, 10 mM EDTA, DMSO (5.0% v/v), Triton X-100 (0.01% v/v) and 5.0 mM DTT at pH 5.5. […]
The reaction started by the addition of the substrate Z-FR-MCA was monitored by recording the emission at wavelength 460 nm while exciting at 360 nm. Fluorescence was measured using a Synergy HT fluorimeter microplate reader (Biotek). The percentage of inhibition was calculated according to following equation: [drawing 1] where vi and v0 are the initial velocities determined in presence and absence of inhibitors, respectively. […]

In series [8] the target is T2, cruzain (Trypanosoma cruzi, UniProt P25779).
T2 construct: Recombinant cruzain enzyme was expressed and purified as previously described; made in house
Nature of the series: cruzain enzyme assay, IC50 determination (Z-FR-MCA fluorescence). The format is biochemical. Particulars: for IC50: Neq42 analogs, SAR, unit inferred, read-out: IC50, cruzain inhibition (Figure 6). Here is the method:
as §2
The activity of cruzain was measured in 100 mM phosphate buffer, 100 mM NaCl, 10 mM EDTA, DMSO (5.0% v/v), Triton X-100 (0.01% v/v) and 5.0 mM DTT at pH 6.3. The activity of cathepsin L was measured in 100 mM sodium acetate buffer, 100 mM NaCl, 10 mM EDTA, DMSO (5.0% v/v), Triton X-100 (0.01% v/v) and 5.0 mM DTT at pH 5.5. Both assays were carried out with 2 nM of the respective enzymes and 2 µM of the substrate Z-FR-MCA.
The reaction started by the addition of the substrate Z-FR-MCA was monitored by recording the emission at wavelength 460 nm while exciting at 360 nm. Fluorescence was measured using a Synergy HT fluorimeter microplate reader (Biotek). The percentage of inhibition was calculated according to following equation: [drawing 1] where vi and v0 are the initial velocities determined in presence and absence of inhibitors, respectively. The activity of enzyme in the presence of inhibitors was measured in 11 different concentrations in order to obtain the dose-response curves, which were analyzed using the Origin 7.0 program to determine the IC50 values. All experiments were repeated at least in duplicate.

Series [9] addresses T1, cathepsin L. Nature of the series: cathepsin L affinity constant (Ki) determination, Michaelis-Menten curves. Format: biochemical. As to conditions: pH 5.5, 0.01% Triton X-100, inhibitor 30, 50 and 70 µM. Here is the method:
as §2, §3
(§4) The Michaelis-Menten curves were determined in the absence and presence of 30, 50 and 70 µM respectively of each inhibitor. […] The reaction was started and monitored as described above. The mechanisms of inhibition and K i values were determined using the kinetic module of SigmaPlot 10.0 by adjusting the velocities into the competitive, non-competitive and uncompetitive modes. […]

Series [10] concerns the target T2, cruzain. Nature of the series: cruzain affinity constant (Ki) and mechanism determination, Michaelis-Menten curves. Format: biochemical. Particulars: pH 6.3, 0.01% Triton X-100, inhibitor 30, 50 and 70 µM. Here is the method:
as §2, §3, §4

Setting [11] is: LLC-MK2, 96 h, Tulahuen lacZ strain, 4 days of culture, read-out: Trypanocidal activity IC50.
The mark [12] stands for this setting: LLC-MK2, Tulahuen lacZ strain, read-out: trypanocidal pIC50 (converted).
Where [13] appears, read: TULAHUEN, LLC-MK2, average for compounds Neq165, Neq172, Neq176 and Neq177, read-out: trypanocidal pIC50 on average (converted).

Like-named read-outs stand apart in the source and are kept apart here.

T2 sequence (P25779 123-337 limits assumed): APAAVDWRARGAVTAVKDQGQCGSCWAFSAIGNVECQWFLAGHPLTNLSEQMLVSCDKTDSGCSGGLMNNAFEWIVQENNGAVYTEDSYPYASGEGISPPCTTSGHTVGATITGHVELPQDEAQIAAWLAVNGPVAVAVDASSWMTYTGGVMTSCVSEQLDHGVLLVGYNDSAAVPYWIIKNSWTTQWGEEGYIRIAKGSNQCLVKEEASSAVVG
T1 sequence (P07711 114-333): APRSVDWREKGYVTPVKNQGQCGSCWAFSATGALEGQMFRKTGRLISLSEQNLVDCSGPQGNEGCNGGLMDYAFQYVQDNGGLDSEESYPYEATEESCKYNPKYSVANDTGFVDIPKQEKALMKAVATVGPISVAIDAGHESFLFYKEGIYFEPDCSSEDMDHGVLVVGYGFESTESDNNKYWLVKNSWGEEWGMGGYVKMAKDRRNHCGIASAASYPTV

With `O=C(Cn1ccnc1[N+](=O)[O-])NCc1ccccc1` [Bz, N-benzyl-2-nitro-1-imidazolacetamide, reference compound], the IC50 at 24 h in [1] was over 500 µM. In series [2], the “cytotoxicity ratio (IC50(cyto)/IC50)(T. cruzi)” value is given as 8. The successful cure entry in series [3] was “up to 80%”. The IC50 in series [4] (setting [11]) was 64.3 ± 12.3 µM; in [4] (setting [12]) it was 63.1 µM.
With `CN1CCN(C(=O)N[C@@H](Cc2ccccc2)C(=O)N[C@H](/C=C/S(=O)(=O)c2ccccc2)CCc2ccccc2)CC1` [Compound K11777], in series [5], the “efficacy in models of acute and chronic Chagas disease” value was “demonstrated efficacy”. Besides, in [6], the mutagenicity result was “non-mutagenic”, the pharmacokinetic profile entry was “acceptable pharmacokinetic profile” and the tolerability entry is on record as “well tolerated”.
For `NC(=O)c1ccsc1NC(=O)CSc1nnc(CN2CCCCC2)n1Cc1ccccc1` [Neq42], the IC50 was 35.1 ± 11 µM in series [7]; 49.9 ± 2.7 µM in series [2]; 21.6 ± 5.4 µM in series [8]; 10.6 ± 0.1 µM in series [4] (setting [11]); 12.6 µM in [4] (setting [12]). For the same molecule, in series [1], the IC50 at 24 h came to 50 µM. For the same molecule, the “cytotoxicity ratio (IC50(cyto)/IC50)(T. cruzi)” value in [2] is on record as 5. Also, the Ki was determined as 35.6 ± 8.2 µM in [9] and 18.5 ± 5.5 µM in series [10]. The preliminary trypanocidal activity result in series [4] (single dose of 250 µM, Tulahuen lacZ strain) is on record as “active”.
Regarding `Cc1nnc(SCC(=O)Nc2sccc2C(N)=O)n1Cc1ccccc1` [Neq165], the IC50 in series [8] was 31.3 ± 1.2 µM; in series [4] (setting [11]) it was 153.4 ± 0.6 µM; in series [4] (setting [13]) it was about 158 µM.
In the case of `NC(=O)c1ccsc1NC(=O)COC(=O)[C@@H](Cc1ccccc1)NC(=O)OCc1ccccc1` [Neq172], in series [1], the IC50 at 24 h stood at 23 µM. The IC50 is 23.1 ± 2.7 µM in [2], 73.1 ± 4.9 µM in series [8], 166 ± 12.9 µM in series [4] (setting [11]) and about 158 µM in [4] (setting [13]).
On to `NC(=O)c1ccsc1NC(=O)CSc1nnc[nH]1` [Neq176], for which, in series [1], the IC50 at 24 h was over 250 µM. The results for the IC50 in series [8], in series [4] (setting [11]) and in [4] (setting [13]) were 68.5 ± 3 µM, 108 ± 52.2 µM and about 158 µM, respectively. For the same molecule, the “ligand efficiency (LE)” value in [8] (from cruzain potency) is reported as 0.33 kcal mol^-1 atom^-1.
In the case of `CC(Sc1nncn1-c1ccccc1)C(=O)Nc1sccc1C(N)=O` (stereo not drawn) [Neq177], in [1], the IC50 at 24 h is over 250 µM. Further, the IC50 was 48.9 ± 10 µM in series [8], 137 ± 14.4 µM in series [4] (setting [11]) and about 158 µM in series [4] (setting [13]).
